Broadly, the IC50 is the midpoint of a concentration-inhibition curve.

Data on four molecules can be found in US20140017330A1, “Activated Nucleoside Analog Conjugates and Methods of Use Thereof” (BOARD OF REGENTS OF THE UNIVERSITY OF NEBRASKA, priority 2011, published 2014).

The subject of series [1] is cytarabine-resistant human leukemic lymphoblast CEM/araC/8 cells. Kind of series: MTT cytotoxicity assay, CEM/araC/8. It is filed as cell-based. The settings on record: 72-hour treatment. Here is the method: (§1) Human breast carcinoma MCF-7, human hepatocellular carcinoma HepG2, and human prostate adenocarcinoma PC-3 cells were obtained from ATCC (Rockville, Md.). These cells were maintained in Dulbecco's Modified Eagle Medium (DMEM) supplemented with 10% fetal bovine serum (FBS), 1% L-glutamine, and 2% penicillin-streptomycin at 37° C. in a humidified atmosphere containing 5% CO2. […] These cells were maintained in DMEM/Nutrient mixture F-12 (DMEM/F12) with similar supplements and serum as above. […] They were grown in the presence of 2 μM gemcitabine. […] Galmarini (UFR Lyon-Sud, Oullins, France). The cells were grown in the presence of 0.5 μM cytarabine (araC). […]
(§2) Cytotoxicity of the polymeric conjugates was analyzed in different cancer cell lines by a standard MTT assay. […] Samples were incubated in full medium for 72 hours at 37° C., and the metabolic activity of each sample was determined by adding 20 μL of a 5 mg/mL of MTT stock solution in sterile PBS buffer to each well. […] Optical absorbance was measured at 560 nm using a model 680 microplate reader (BioRad, Hercules, Calif.) and cytotoxicity was expressed as a percentage of survived cells relative to nontreated control cells. All samples were analyzed by an average of eight measurements (means±SEM).
For orientation: Tetrazolium assays rely on reduction of a dye to a coloured formazan, in cell work by metabolically active cells.

Series [2] has as its system gemcitabine-resistant human follicular lymphoma RL7/G cells. Kind of series: MTT cytotoxicity assay, RL7/G. The format is cell-based. As to conditions: 72-hour treatment. Here is the method:
as §1, §2

Series [3] concerns human breast carcinoma MDA-MB-231 cells. Kind of series: MTT cytotoxicity assay, MDA-MB-231. It is filed as cell-based. As to conditions: 72-hour treatment. Here is the method: as §1, §2
The test system of series [4] is human breast carcinoma MCF-7 cells. Kind of series: MTT cytotoxicity assay, MCF-7. It is filed as cell-based. As to conditions: MCF7, 72-hour treatment. Here is the method:
as §1, §2

The test system of series [5] is human prostate adenocarcinoma PC-3 cells. Kind of series: MTT cytotoxicity assay, PC-3. The format is cell-based. As to conditions: 72-hour treatment. Here is the method:
as §1, §2

In series [6] the test system is human hepatocellular carcinoma HepG2 cells. Kind of series: MTT cytotoxicity assay, HepG2. The format is cell-based. The settings on record: 72-hour treatment, read-out: IC50 values, Hep G2. Here is the method:
as §1, §2

For series [7] the following is noted: comparator from the literature (Mikkola 2004); cited from earlier work.

Molecule `Nc1ccn([C@@H]2O[C@H](CO)[C@@H](O)[C@@H]2O)c(=O)n1` [Cytarabine (araC), arabinosylcytosine] returned an IC50 in series [1] of 1.23 mM. Turning to `Nc1ccn([C@@H]2O[C@H](CO)[C@@H](O)C2(F)F)c(=O)n1` [Gemcitabine (G), 2,2′-difluorocytidine], inhibition in series [2] was half-maximal at 19 mM (IC50).

On to `O=c1[nH]c(=O)n([C@H]2C[C@H](O)[C@@H](CO)O2)cc1F` [Floxuridine (FdU), 5-fluoro-2′-deoxyuridine], for which the IC50 in series [3] stood at 14.2 µM; in series [4] it was 12.2 mM; in series [5], 6.5 µM; in series [6], 2.19 mM. For the molecule `Nc1ncnc2c1ncn2[C@@H]1O[C@H](COP(=O)(O)OP(=O)(O)OP(=O)(O)OP(=O)(O)OC[C@H]2O[C@@H](n3cnc4c(N)ncnc43)[C@H](O)[C@@H]2O)[C@@H](O)[C@H]1O` [diadenosine-P1,P4-tetraphosphate], the drug release time in series [7] is 3 days.
